Test [1] concerns C57BL/6J male mice. The class given is in vivo. An excerpt:
Subjects were 12-week old male C57BL/6J mice (The Jackson Laboratory, Bar Harbor Me.). Subjects were housed 5 per cage under standardized conditions (12:12 light cycle with lights on at 7:00 am) and were allowed at least 7 days of rest before testing. Food and water were available ad libitum.
Placebo cage-mate controls received an injection of saline.
The tail suspension test took place between 2:00 pm and 5:00 pm. […] Immediately after injection, each animal was placed in a clean cage and transferred to the testing room.
Approximately 1 cm from the end, each mouse's tail was taped (Scotch 35 Vinyl Electrical Tape) to a paperclip. Mice were suspended by the tail approximately 80 cm above the floor and the duration of immobility, defined as the absence of all movement except for those required for respiration, was recorded by an observer for 6 minutes. The animals were then returned to the holding room.

In the next test the target is T1, hα4β2 (Homo sapiens, UniProt P17787+P43681).
T1 construct: expressed in transfected cells; host or cells: HEK293 cells
The following applies: HEK293 cells; cited from earlier work.

Test [2] relates to C57BL/6J male mice. The settings on record: 21 days i.p. treatment, 24 hour food deprivation, FIG. 1.
Description: A novelty-suppressed feeding test (NSFT) was conducted consisting of a 24 hour food deprivation, and a recording of the time to initiate a first feeding episode in an open-field, with controls for appetite and motivation (measure of weight loss and food intake).
The target in a further test is T2, (α1)2β1γδ nAChR (Tetronarce californica, UniProt P02710+P02714+P02718).
T2 construct: 100 μL of the Torpedo californica electroplax fraction (60-70 μg); from tissue; host or cells: Torpedo californica electric organ (electroplax) membranes
T2 sequence (P02710 25-461): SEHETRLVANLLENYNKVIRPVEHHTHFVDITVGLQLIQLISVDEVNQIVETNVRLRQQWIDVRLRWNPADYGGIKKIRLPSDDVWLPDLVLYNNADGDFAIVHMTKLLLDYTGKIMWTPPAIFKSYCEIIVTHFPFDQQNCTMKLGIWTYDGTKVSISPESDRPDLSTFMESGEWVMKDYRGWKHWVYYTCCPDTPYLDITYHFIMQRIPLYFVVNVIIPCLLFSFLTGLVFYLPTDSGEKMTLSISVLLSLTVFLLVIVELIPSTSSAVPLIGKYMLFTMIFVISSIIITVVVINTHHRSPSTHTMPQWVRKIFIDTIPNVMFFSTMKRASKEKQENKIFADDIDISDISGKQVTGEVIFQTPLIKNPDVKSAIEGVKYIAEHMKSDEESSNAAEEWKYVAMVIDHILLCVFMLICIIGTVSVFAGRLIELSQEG
T2 sequence (P02712 25-493, further chain): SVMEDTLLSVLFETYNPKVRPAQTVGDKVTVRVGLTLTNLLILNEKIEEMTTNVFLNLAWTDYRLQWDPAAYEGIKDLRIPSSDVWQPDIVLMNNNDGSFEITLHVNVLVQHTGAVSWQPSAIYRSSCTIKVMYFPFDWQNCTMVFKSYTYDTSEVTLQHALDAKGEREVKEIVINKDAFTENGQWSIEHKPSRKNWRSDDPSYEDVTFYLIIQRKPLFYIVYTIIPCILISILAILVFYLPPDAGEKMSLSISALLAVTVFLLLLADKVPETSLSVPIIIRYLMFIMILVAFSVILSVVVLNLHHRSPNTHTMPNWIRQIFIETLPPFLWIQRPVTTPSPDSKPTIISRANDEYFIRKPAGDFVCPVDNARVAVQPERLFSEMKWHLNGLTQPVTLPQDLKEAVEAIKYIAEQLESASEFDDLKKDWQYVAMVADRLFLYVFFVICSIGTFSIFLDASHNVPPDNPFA
T2 sequence (P02718 22-522): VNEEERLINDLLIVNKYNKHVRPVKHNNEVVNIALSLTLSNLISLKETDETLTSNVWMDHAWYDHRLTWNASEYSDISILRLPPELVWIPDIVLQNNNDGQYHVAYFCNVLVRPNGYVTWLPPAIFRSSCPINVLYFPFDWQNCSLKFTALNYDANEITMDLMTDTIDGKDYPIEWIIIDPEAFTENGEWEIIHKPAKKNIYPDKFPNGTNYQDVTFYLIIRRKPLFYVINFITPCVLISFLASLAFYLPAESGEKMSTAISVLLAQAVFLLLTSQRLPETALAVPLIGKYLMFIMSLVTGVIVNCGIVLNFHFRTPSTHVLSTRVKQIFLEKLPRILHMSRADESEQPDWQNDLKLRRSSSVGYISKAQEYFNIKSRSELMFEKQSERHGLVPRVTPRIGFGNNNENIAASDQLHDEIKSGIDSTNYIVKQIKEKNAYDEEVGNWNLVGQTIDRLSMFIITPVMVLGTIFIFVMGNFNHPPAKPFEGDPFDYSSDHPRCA
T2 sequence (P02714 18-506): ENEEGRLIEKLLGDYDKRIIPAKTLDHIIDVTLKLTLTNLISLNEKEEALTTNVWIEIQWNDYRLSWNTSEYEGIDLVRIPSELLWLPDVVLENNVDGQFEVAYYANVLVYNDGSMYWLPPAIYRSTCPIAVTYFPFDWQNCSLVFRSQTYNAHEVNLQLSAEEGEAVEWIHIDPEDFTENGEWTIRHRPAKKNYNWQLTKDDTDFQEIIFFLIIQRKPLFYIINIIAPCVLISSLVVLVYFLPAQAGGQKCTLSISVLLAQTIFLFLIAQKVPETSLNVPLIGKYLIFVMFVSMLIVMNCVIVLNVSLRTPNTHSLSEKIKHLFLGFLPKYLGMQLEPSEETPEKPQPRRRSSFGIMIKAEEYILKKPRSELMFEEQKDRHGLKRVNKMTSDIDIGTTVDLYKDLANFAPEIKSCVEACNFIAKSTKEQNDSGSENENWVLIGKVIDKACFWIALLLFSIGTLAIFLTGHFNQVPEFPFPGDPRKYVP
The test is described as follows: biochemical. The class given is binding, Torpedo californica. How it is done:
Preparation of Torpedo californica Electroplax
Frozen samples of Torpedo californica electric organ (−80° C.) were placed on ice for 30-60 min and allowed to thaw slowly before the membrane preparation. The tissue was homogenised in an ice-cold HSS-buffer (Ultraturrax at 750 rpm) and centrifuged (30,000×g, 10 min, 4° C.). The pellets were collected, washed four times with HSS-buffer through re-homogenization and centrifugation at the same settings. The remaining pellets were collected, re-suspended in HSS and stored in aliquots at −80° C.
One hour before the experiments the tissues were slowly thawed, homogenised in HSS-buffer and centrifuged (25,000×g, 20 min, 4° C.). The pellets were re-suspended in fresh HSS-buffer and used for radioligand binding assays.
Competition Assay Using (±)-[^3H]Epibatidine ([^3H]Epi) and Torpedo californica Electroplax ((α1)2β1γδ nAChR)
(§1) A dilution row of 6-9 concentrations of the test compound was prepared. Each assay sample, with a total volume of 500 μL contained 200 μL of the test compound, 100 μL of (±)-[^3H]epibatidine and 100 μL of the Torpedo californica electroplax fraction (60-70 μg). Non-specific binding was determined in the presence of 300 μM (−)-nicotine tartrate salt. The samples were homogenised and incubated for 90 min at 22° C. The incubation was terminated by vacuum filtration through glass fibre filters pre-soaked in 1% poly(ethyleneimine). The filters were rinsed three times with TRIS-buffer, punched out and transferred into 4 mL scintillation vials. The scintillation vials were filled with scintillation cocktail (2 mL) and the radioactivity was measured using a liquid scintillation counter.
Assays were carried out in duplicates, triplicate or quadruplicates.
(§2) Biological evaluation of the compounds on various nicotinic actylcholine receptors (nAChRs) was conducted with cells described below. […] Functional agonist activity of the cytisines in cells using a fluorescence assay sensitive to changes in cytosolic calcium.

Another test concerns the target T3, α3β4* nAChR (Bos taurus, UniProt Q07263+Q8SPU6).
T3 construct: 100 μL of the calf adrenal membrane protein fraction (60-70 μg); from tissue; host or cells: calf adrenals, membrane fraction
The test is described as follows: biochemical. The class given is binding, calf.

The test system of the next test is c-fos. The following applies: brain regions, FIG. 2.
Test [3] has as its system C57BL/6J male mice. The following applies: cytisine + 5HT1A/7 agonist 8OHDPAT.
For test [4], the system named is C57BL/6J male mice. The settings on record: acute i.p. injection of cytisine, FIG. 1.
Description: C57BL/6J male mice, 34 months of age were used in these experiments. […] At 15 minutes, the mice were subject to a forced swim test (FST) and a recorded of immobility (time and patters) was provided. Control behavior was provided by testing locomotor activity at 20 minutes in an open field.
Another test deals with T4, α4β2* nAChR (Rattus norvegicus, UniProt P09483+P12390).
T4 construct: Frozen rat brains were thawed slowly before the preparation of the P2 rat brain membrane fraction; from tissue; host or cells: rat brain (without cerebellum and medulla), P2 membrane fraction
T4 sequence (P12390 25-500): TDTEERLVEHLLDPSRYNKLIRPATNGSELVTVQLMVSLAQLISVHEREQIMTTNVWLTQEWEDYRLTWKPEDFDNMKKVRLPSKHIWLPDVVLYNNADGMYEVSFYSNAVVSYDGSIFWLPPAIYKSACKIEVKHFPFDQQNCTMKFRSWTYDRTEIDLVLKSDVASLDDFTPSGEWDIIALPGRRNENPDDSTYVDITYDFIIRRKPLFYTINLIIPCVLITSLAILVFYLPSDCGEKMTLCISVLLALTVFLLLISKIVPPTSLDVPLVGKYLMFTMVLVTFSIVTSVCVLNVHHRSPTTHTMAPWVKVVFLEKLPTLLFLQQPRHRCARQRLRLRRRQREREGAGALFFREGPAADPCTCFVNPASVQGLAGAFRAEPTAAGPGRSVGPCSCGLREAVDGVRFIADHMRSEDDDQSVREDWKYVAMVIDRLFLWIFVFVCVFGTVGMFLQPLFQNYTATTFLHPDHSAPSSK
T4 sequence (P09483 31-630): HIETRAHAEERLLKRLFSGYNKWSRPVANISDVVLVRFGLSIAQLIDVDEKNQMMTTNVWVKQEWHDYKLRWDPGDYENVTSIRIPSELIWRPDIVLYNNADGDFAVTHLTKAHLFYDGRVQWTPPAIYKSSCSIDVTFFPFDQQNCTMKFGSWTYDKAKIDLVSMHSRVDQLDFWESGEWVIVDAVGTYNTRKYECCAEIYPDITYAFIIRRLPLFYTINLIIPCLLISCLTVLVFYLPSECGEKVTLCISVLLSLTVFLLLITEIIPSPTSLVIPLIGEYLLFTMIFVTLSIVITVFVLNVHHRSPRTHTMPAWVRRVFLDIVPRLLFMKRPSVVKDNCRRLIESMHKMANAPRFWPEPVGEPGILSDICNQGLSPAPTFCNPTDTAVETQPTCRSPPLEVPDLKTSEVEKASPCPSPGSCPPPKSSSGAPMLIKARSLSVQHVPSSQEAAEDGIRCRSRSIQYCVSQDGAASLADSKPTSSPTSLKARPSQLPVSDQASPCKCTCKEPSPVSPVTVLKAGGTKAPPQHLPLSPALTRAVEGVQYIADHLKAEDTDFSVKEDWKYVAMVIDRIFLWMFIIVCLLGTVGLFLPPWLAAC
The test is described as follows: biochemical. The class given is binding. The procedure:
(§3) Preparation of Rat Brains
(§4) Frozen rat brains were thawed slowly before the preparation of the P2 rat brain membrane fraction (30-60 min on ice, afterwards at room temperature). […] After the determination of the wet weight (1.32 g on average), the brains were pressed into a pulp using a syringe and homogenised in saccharose buffer with a glass teflon homogenizator (Potter, 10 seconds). The tissue was then centrifuged (1,000×g, 20 min, 4° C.), the supernatant (S1) aspirated with a Pasteur pipette and stored on ice. The P1 pellet was re-suspended in saccharose buffer and the centrifugation was repeated. The supernatant S1′ was collected and added to the supernatant S1. The combined supernatants were centrifuged (25,000×g, 20 min, 4° C.), the supernatant S2 was removed and the pellet P2 collected and diluted with HSS-buffer. The buffer volume added was calculated on the basis of the wet weight in a ratio 1:2.
(§5) The final pellet was stored in aliquots at −80° C. On the day of the experiment, the P2 membrane fraction was thawed, diluted with HSS-buffer (30-fold volume), homogenised and centrifuged (35,000×g, 10 min, 4° C.). The collected pellet was suspended in HSS-buffer and used in the radioligand binding experiments.
Competition Assay Using (±)-[^3H]Epibatidine ([^3H]Epi) and Rat Brain P2-Fraction (α4β2*nAChR)
as §1, with “contained 100 μL of the membrane protein (60 μg), 100 μL of (±)-[^3H]epibatidine (0.5 nM), 100 μL of HSS-buffer and” for “contained”, “test compound” for “test compound, 100 μL of (±)-[^3H]epibatidine and 100 μL of the Torpedo californica electroplax fraction (60-70 μg).”, “The filter” for “The filters”
Assays were carried out in duplicate, triplicates or quadruplicates.
as §2

In a further test the target is T5, α7* nAChR (Rattus norvegicus, UniProt Q05941).
T5 construct: Frozen rat brains were thawed slowly before the preparation of the P2 rat brain membrane fraction; from tissue; host or cells: rat brain P2 membrane fraction
T5 sequence (Q05941 23-502): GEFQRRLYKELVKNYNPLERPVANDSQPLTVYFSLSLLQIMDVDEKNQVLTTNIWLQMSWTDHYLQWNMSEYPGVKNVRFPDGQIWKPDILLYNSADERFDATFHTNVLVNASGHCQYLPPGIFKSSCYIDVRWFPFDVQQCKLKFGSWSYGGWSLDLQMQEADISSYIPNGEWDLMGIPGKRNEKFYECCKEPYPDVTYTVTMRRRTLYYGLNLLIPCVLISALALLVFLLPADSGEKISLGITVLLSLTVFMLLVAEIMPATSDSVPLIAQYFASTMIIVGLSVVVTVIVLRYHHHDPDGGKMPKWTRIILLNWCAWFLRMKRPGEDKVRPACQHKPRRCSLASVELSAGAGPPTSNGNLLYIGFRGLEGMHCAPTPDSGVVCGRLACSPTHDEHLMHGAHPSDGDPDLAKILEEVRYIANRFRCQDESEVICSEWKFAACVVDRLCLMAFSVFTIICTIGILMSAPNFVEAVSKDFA
The test is described as follows: Competition assay using [3H]methyllycaconitine and rat brain P2-fraction. The test is classed as binding. The settings on record: preliminary results; read-out: α7* [3H]MLA rat brain Ki. How it is done: as §3, §4, §5
Competition Assay Using [^3H]Methyllycaconitine ([^3H]MLA) and Rat Brain P2-Fraction (α7*nAChR)
A dilution row of 6-9 concentrations of the test compound was prepared. Each assay sample, with a total volume of 250 μL contained 50 μL of the test compound, 100 μL of [^3H]MLA and 100 μL of the P2-membrane protein fraction (60-70 μg). Non-specific binding was determined in the presence of 1 μM MLA. The samples were homogenised and incubated for 120 min at 22° C. The incubation was terminated by vacuum filtration through glass fibre filters pre-soaked in 1% poly(ethyleneimine). The filters were rinsed three times with TRIS-buffer, punched out and transferred into 4 mL scintillation vials. The scintillation vials were filled with scintillation cocktail (2 mL) and the radioactivity was measured using a liquid scintillation counter.
Assays were carried out in duplicates, triplicates or quadruplicates.

Where two headings read alike, the source gives them in different places.

T3 sequence (Q07263 22-495): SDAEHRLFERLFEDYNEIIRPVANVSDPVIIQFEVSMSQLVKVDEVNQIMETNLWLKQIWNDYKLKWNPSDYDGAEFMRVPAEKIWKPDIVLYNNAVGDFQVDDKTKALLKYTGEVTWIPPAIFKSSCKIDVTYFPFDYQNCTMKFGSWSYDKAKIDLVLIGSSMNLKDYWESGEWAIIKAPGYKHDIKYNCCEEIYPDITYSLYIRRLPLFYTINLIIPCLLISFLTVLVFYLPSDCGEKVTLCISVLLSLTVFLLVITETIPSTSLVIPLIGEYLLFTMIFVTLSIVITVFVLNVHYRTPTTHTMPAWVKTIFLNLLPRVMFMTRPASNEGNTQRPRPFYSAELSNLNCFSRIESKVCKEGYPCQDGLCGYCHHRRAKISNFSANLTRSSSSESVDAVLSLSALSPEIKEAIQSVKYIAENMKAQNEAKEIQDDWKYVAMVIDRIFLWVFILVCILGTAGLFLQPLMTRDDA
T3 sequence (Q8SPU6 20-496): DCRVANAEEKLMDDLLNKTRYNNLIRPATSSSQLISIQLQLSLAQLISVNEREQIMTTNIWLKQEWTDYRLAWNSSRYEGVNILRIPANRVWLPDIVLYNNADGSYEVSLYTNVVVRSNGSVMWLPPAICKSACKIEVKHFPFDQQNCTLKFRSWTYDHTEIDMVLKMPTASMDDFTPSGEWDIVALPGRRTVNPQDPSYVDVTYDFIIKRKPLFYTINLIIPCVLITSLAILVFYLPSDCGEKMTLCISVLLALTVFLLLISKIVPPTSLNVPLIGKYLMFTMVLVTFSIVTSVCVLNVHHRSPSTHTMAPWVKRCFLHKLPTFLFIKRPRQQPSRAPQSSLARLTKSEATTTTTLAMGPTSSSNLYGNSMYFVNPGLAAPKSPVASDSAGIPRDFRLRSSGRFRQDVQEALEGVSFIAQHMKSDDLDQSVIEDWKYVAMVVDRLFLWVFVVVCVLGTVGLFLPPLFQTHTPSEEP
Description for α3β4* nAChR: Preparation of Calf Adrenals
Frozen calf adrenals (−80° C.) were placed on ice for 30-60 min and allowed to thaw slowly before they were cut into small pieces. After determination of the wet weight (4-6 g), the tissue was homogenised in HSS-buffer (Ultraturrax at 750 rpm). The homogenate was centrifuged (30,000×g, 10 min, 4° C.), the pellets collected and washed. This procedure was repeated five times. The buffer volume used to re-suspend the pellets was calculated on the basis of the wet weight in a ratio 1:6.5.
The prepared tissues were stored in aliquots at −80° C. One hour before the experiments the tissues were slowly thawed, homogenised in HSS-buffer and centrifuged (25,000×g, 20 min, 4° C.). The pellets were re-suspended in fresh HSS-buffer and used for radioligand binding assays.
Competition Assay Using (±)-[^3H]Epibatidine ([^3H]Epi) and Calf Adrenals Membrane Fraction (α3β4*nAChR)
Each assay sample, with a total volume of 500 μL contained 200 μL of the test compound, 100 μL of (±)-[^3H]epibatidine, 100 μL of the calf adrenal membrane protein fraction (60-70 μg) and 100 μM of HSS-buffer. Non-specific binding was determined in the presence of 300 μM (−)-nicotine tartrate salt. The samples were homogenised and incubated for 90 min at 22° C. The incubation was terminated by vacuum filtration through glass fibre filters presoaked in 1% poly(ethyleneimine). The filters were rinsed three times with TRIS-buffer, punched out and transferred into 4 mL scintillation vials. The scintillation vials were filled with scintillation cocktail (2 mL) and the radioactivity was measured using a liquid scintillation counter.

Consider `O=c1c(-c2cccnc2)ccc2n1CC1CNCC2C1` (centres unmarked) [compound 1], for which, in the test on C57BL/6J male mice [1] (acute i.p., […] (1.5 mg/kg elsewhere in the source), 45 minutes after injection, vs saline, p=0.014, FIG. 3), the “mean duration of immobility in tail suspension test” value is on record as “significantly less mobile”.

What is called Ki is the dissociation constant of the complex between target and ligand, obtained from inhibition or displacement. Take `Nc1cccc(-c2ccc3c(c2)CC2CNCC3C2)c1` (centres unmarked) [57m]: the Ki at hα4β2 was 500 nM.

As to `O=c1cccc2n1C[C@@H]1CNC[C@H]2C1` [compound 27, 1,2,3,4,5,6-hexahydro-1,5-methano-pyrido[1,2-a][1,5]diazocin-8-one], in the test on C57BL/6J male mice [2], the “time to initiate first feeding episode in novelty-suppressed feeding test” value is listed as “generalized antidepressant-like profile”. Further, the figures for the Ki at (α1)2β1γδ nAChR, at α3β4* nAChR and at α4β2* nAChR were 1300 nM, 19 nM and 0.122 nM, respectively. For the same compound, in the test with c-fos, the “neuronal activity (c-fos immunostaining)” value was “Reductions of neuronal activity in the amygdala, hypothalamus and in the nucleus accumbens”. Besides, the “potentiation of cytisine effects” value in the test with C57BL/6J male mice [3] is listed as “potentiation”. In addition, the “immobility in tail suspension test” value in the test on C57BL/6J male mice [1] (acute i.p. injection of cytisine, FIG. 1) was “generalized antidepressant-like profile”; in the test on C57BL/6J male mice [1] (cytisine, doses lower than 1 mg/kg), “did not yield any significant effects”. Further, the “immobility in forced swim test” value with C57BL/6J male mice [4] is on record as “generalized antidepressant-like profile”.

As to `O=c1ccc(-c2ccc3c(c2)OCO3)c2n1C[C@@H]1CNC[C@H]2C1` [124e, 5-(3′,4′-Methylenedioxy-phenyl)-cytisine], the Ki was over 10000 nM at (α1)2β1γδ nAChR, over 10000 nM on α3β4* nAChR, over 10000 nM at α7* nAChR and 96 nM at α4β2* nAChR.

Consider `c1ccc(-c2ccc3c(c2)CC2CNCC3C2)cc1` (centres unmarked) [57j], for which, on hα4β2, the Ki is 500 nM.

`O=c1c(-c2cccc([N+](=O)[O-])c2)ccc2n1C[C@@H]1CNC[C@H]2C1` [94e, 3-(3′-Nitro-phenyl)-cytisine]: the inhibitory constant (Ki) on (α1)2β1γδ nAChR is over 10000 nM; at α3β4* nAChR it was over 2000 nM; on α7* nAChR it was over 10000 nM; at α4β2* nAChR, 23 nM.

Turning to `O=c1c(-c2ccc3[nH]ccc3c2)ccc2n1C[C@@H]1CNC[C@H]2C1` [117e, 3-(1H-Indol-5′-yl)-cytisine], the Ki on (α1)2β1γδ nAChR was over 10000 nM; on α3β4* nAChR, over 10000 nM; at α7* nAChR, over 10000 nM; at α4β2* nAChR, 853 nM.

Take `O=c1c(-c2cccc(C(F)(F)F)c2)ccc2n1C[C@@H]1CNC[C@H]2C1` [96e, 3-(3′-Trifluoromethyl-phenyl)-cytisine]: the inhibitory constant (Ki) is over 10000 nM on (α1)2β1γδ nAChR, 3700 nM at α3β4* nAChR, over 10000 nM on α7* nAChR and 8.3 nM on α4β2* nAChR.

As to `O=c1c(-c2cccc(-c3ccccc3)c2)ccc2n1C[C@@H]1CNC[C@H]2C1` [100e, 3-(Biphenyl-3′-yl)-cytisine], the Ki on (α1)2β1γδ nAChR was over 10000 nM; at α3β4* nAChR it was over 10000 nM; on α7* nAChR, over 10000 nM; on α4β2* nAChR, 200 nM.

The values above are taken from US20090318491A1 (priority 2006, published 2009).
